The values below come from patent US5712274A, “Thienotriazolodiazepine compounds and their pharmaceutical use” (Yoshitomi Pharmaceutical Industries, Ltd., priority 1995, dated 1998).

Assay [1] has as its system CD11b. The assay can be described thus: Effect on CD11b expression in human histiocytic leukemia cell line, U937 cells (PDB-induced). The format is cell-based. The note with it: U-937, 72 h, read-out: Inhibitory effect on CD11b expression (IC50). Here is the method: Effect on CD11b expression human histiocytic leukemia cell line, U937 cells
Effect on the expression of CD11b antigen, which is the α chain of an adhesion molecule, Mac-1 expressing on the surface of leukocytgic cells, was investigated. U937 cells were suspended in RPMI1640 medium containing 20% fetal calf serum (FCS), plated with phorbol 12,13-dibutyrate (PDB, 10 ng/ml) into 96-well filtration plates, and cultured for 3 days at 37° C. in 5% CO2. After the cells were washed once with RPMI1640 medium, rat anti-human CD11b antibody (2 μg/ml) was added to each well and the plates were incubated for 1 hr on ice. After the cell were washed twice, peroxidase-conjugated anti-rat immunoglobulin antibody (1 μg/ml) was added, and the cells were incubated for 1 hr on ice. After the cells were washed 3 times, substrate for peroxidase (o-phenylenediamine) was added. After the plates were stood for 15 min at room temperature, absorbance at 490 nm was measured with a 96-well microplate reader and was regarded as a indicator of CD11b antigen expression.

Assay [2] relates to VCAM-1. The experiment in a line: Inhibitory effect on TNF-α-induced expression of VCAM-1 in HUVECs. To be noted: Homo sapiens, HUVEC, read-out: Inhibitory effect (IC50) on CAM-1 expression. The class given is cell-based. Here is the method: (§1) Inhibitory effect on expression of VCAM-1 and ELAM-1 in human umbilical vein-derived endothelial cells (HUVECs)
(§2) HUVECs were suspended in 199 medium containing 20% FCS, 20 μg/ml endothelial cell growth factor derived from bovine brain, and 100 μg/ml heparin, plated into 96-well microculture plates coated with collagen, and cultured at 37° C. in 5% CO2. When cells were grown to confluence, the cells received tumour necrosis factor (TNF)-α (20 U/ml for VCAM-1 expression, 100 U/ml for ELAM-1 expression) and cultured for 5 hr. After the cells were washed once with 199 medium, mouse anti-human VCAM-1 monoclonal antibody (2 μg/ml) or rat anti-human ELAM-1 monoclonal antibody (2 μg/ml) was added, and the cells were incubated for 1 hr at room temperature. After the cells were washed twice, peroxidase-conjugated anti-mouse immunoglobulin antibody or anti-rat immunoglobulin antibody was added, and the cells were incubated for 1 hr at room temperature. After the cells were washed 3 times, 2,2'-azino-bis(3-ethylbenzothiazolone-6-sulfonic acid) was added. After the plates were stood for 15 min at room temperature, absorbance at 405 nm with a reference wave length of 490 nm was measured with a 96-well microplate reader and was regarded as a indicator of VCAM-1 or ELAM-1 expression.

In assay [3] the test system is ELAM-1. The experiment in a line: Inhibitory effect on TNF-α-induced expression of ELAM-1 in HUVECs. The format is cell-based. To be noted: Homo sapiens, HUVEC, read-out: Inhibitory effect (IC50) on ELAM-1 expression. As to the method:
as §1, §2

In assay [4] the test system is oxazolone-induced ear edema. The experiment in a line: Effect on oxazolone-induced ear edema in mice. The class given is in vivo. To be noted: sensitized mice, 24 hr after challenge. As to the method: Effect on oxazolone-induced ear edema in mice.
Mice were sensitized by applying 50 μl of oxazolone solution (50 mg/ml in acetone) to their shaved abdomen on day 0. On day 7, 5 μl of oxazolone solution was applied to each surface of the right ear. After 24 hr (day 8), the right and left ears were cut off with a puncher of 6 mm in diameter and weighed with an electronic reading balance. The difference in weight between the oxazolone-treated ear (right) and untreated ear (left) was taken to reflect the extent of ear edema. Test compounds were suspended in 0.5% hydroxypropylmethycellulose solution and administered p.o. (0.1 ml/10 g body weight) on days 0 to 4 (once a day) and day 7 (twice a day).

Assay [5] has as its system thioglycollate (TG) medium-induced infiltration of leukocytes. The assay can be described thus: Effect on thioglycollate (TG) medium-induced infiltration of leukocytes. The format is in vivo, BALB/c mice. The note with it: TG medium 1 ml, day 4. As to the method:
Effect on thioglycollate (TG) medium-induced infiltration of leukocytes
One ml of TG medium was injected into peritoneal cavity of BALB/c mice on day 0. On day 4, leukocytes infiltrating into the peritoneal cavity were collected with 3 ml of phosphatebuffered saline containing 0.02% EDTA and the density of leukocytes (cells/ml) was counted with an automatic blood cell counter. Total number of leukocytes (X) was calculated from the density of leukocytes (A) with the following formula.
Test compounds were suspended in 0.5% hydroxypropylmethyl-cellulose solution and administered p.o. (0.1 ml/10 g body weight) on days 0 to 3.

Assay [6] deals with glomerulonephritis. The experiment in a line: Effect on glomerulonephritis in mice (anti-GBM antiserum). The class given is in vivo, female C57BL/6 mice. The note with it: 12 days after anti-GBM antiserum, 0-5 points. Here is the method: Effect on glomerulonephritis in mice
Rabbit immunoglobulin G solution (4 mg/ml in saline) was mixed with Freund's complete adjuvant at a ratio of 1:1 and the emulsion was prepared. The emulsion was injected into peritoneal cavity of female C57BL/6 mice (0.25 ml/mouse). After 5 days, rabbit anti-mouse glomerular basement membrane (GBM) antiserum obtained by the method of Nagai et al. (Japan. J. Pharmacol., 32, 1117, 1982) was administered i.v. (0.08 ml/mouse). […] Test compounds were suspended in 0.5% hydroxypropylmethylcellulose (HPMC) solution and administered p.o. (0.1 ml/10 g body weight) for 13 days beginning on the day of anti-GBM ant-serum injection.

The test system of assay [7] is antigen induced Eosinophils accumulation into lungs. The assay can be described thus: Effect on antigen induced eosinophils accumulation into lungs in actively sensitized guinea pigs. The class given is in vivo, male Dunkin-Hartley guinea pigs. To be noted: 30 mg/kg p.o., BALF 24 h after antigen exposure. As to the method: Effect on antigen induced Eosinophils accumulation into lungs in actively sensitized guinea pigs
Male Dunkin-Hartley guinea pigs (4W, Japan SLC, Inc.) were used throughout this study.
Sensitized animals were orally administered (p.o.) with compound or solvent (0.5% hydroxymethylcellulose) 30 min. before final sensitization, 30 min. before antigen exposure and 4.5 h after antigen exposure.
Egg albumin (EA, 10 μg) was added to AI(OH)3 (10 mg) in sterile physiological saline (0.5 ml) and mixed in a blender. This mixture was injected intraperitoneally into recipients. And after 14 days and 21 days, the procedure was repeated. Seven days after the final sensitization procedure, Mepyramine 10 mg/kg was injected intraperitoneally into the sensitized animals. After 30 min., the animals were exposed to aerosol of 1% EA in sterile physiological saline for 5 min.
24 h after antigen exposure, the animals were killed by exsanguination and tracheae were cannulated. And the lungs were lavaged three times with 10 ml of sterile physiological saline. Lavage fluid (BALF) was centrifuged (800 rpm for 10 min. at 4° C.) and the cell pellet was resuspended in 10 ml of sterile physilolgical saline and total cell numbers in BALF were counted in a hemocytometer (MEK 4200, Nihon-kohden, Ltd.). Differential cell counts were made from centrifuged preparations stained with May-Giemsa stain.

The subject of assay [8] is TNBS-induced colitis. The experiment in a line: Effect on TNBS-induced colitis model in rats (intrarectal administration). The class given is in vivo, SD rats. To be noted: 7 days. Here is the method:
Effect on trinitrobenzenesufonec acid (TNBS)-induced colitis model in rats.
Colitis was induced by intrarectal injection of TNBS solution (60 mg/ml in 50% EtOH, 500 μl/rat) to SD rats. Seven days later, rats were sacrificed, and large intestine (8 cm from anus) was cut off and weighed. Myeloperoxidase (MPO) activity in the intestinal tissue was measured as follows and taken as an indicator of leukocyte infiltration: the intestinal tissue was homogenized and a cycle of freeze-thawing of the tissue was repeated 3 times. The supernatant obtained by centrifugation was assayed for MPO activity with substrate for peroxidase (o-phenylenediamine). MPO activity in the supernatant was calculated with the commercial MPO as a standard. The increases in intestinal weight and MPO activity as described above were taken as indicators of colitis. Test compounds were suspended in 0.5% hydroxypropylmethylcellulose solution and administered intrarectally (o.2 ml/rat) for 5 days beginning on the day of TNBS injection.

Assay [9] has as its system lipopolysaccharide (LPS)-induced adhesion of leukocytes. The experiment in a line: Effect on lipopolysaccharide (LPS)-induced adhesion of leukocytes. The format is in vivo, BALB/c mice. The note with it: 6 hr after LPS. An excerpt: Effect on lipopolysaccharide (LPS)-induced adhesion of leukocytes
It has been reported that, by the administration of LPS to mice, an adhesion molecule, Mac-1-dependent leukocyte adhesion is induced, the leukocytes infiltrate into lung, liver and so on, and in result the number of peripheral blood leukocytes reduces (Morisaki et al., Clin. Immunol. Immunopathol., 61, 365-375, 1991). The effect on LPS-induced leukocyte adhesion was investigated by taking the reduction of peripheral blood leukocytes as an indicator of leukocyte adhesion.
LPS solution (50 ng/ml in saline, 0,5 ml/mouse) was injected into peritoneal cavity of BALB/c mice on day 0. Six hr after the LPS injection, the number of peripheral blood leukocytes was counted with an automatic blood cell counter. Test compounds were suspended in 0.5% hydroxypropylmethylcellulose solution and administered p.o. (0.1 ml/10 g body weight) on days -4 to 0.

Structures are written as SMILES. Read-outs that look alike come from different tables or passages of the source.

As to `Cc1sc2c(c1C)C(c1ccc(Cl)cc1)=N[C@@H](CC(=O)NCCO)c1nnc(C)n1-2` [Example 2, (S)-N-(2-hydroxyethyl)-4-(4-chlorophenyl)-2,3,9-trimethyl-6H-thieno[3,2-f][1,2,4]triazolo[4,3-a][1,4]diazepine-6-acetamide 1/4 hydrate], the IC50 amounted to 150 nM in [1] (U937 cells, PDB 10 ng/ml, 3 days); 37 nM in [2] (HUVECs, TNF-α 20 U/ml, 5 hr); 79 nM in assay [3] (HUVECs, TNF-α 100 U/ml, 5 hr). Moreover, the “Increase in ear weight (mean ± S.D.)” value amounted to 14.3 ± 1.5 mg in assay [4] (0.3 mg/kg p.o.) and 14.2 ± 0.4 mg in [4] (1 mg/kg p.o.). The figures for the “Total number of leukocytes (mean ± S.D.)” value in assay [5] (0.03 mg/kg/day p.o.), in assay [5] (0.1 mg/kg/day p.o.) and in [5] (0.3 mg/kg/day p.o.) were 1064 ± 359 × 10^4, 594 ± 302 × 10^4 and 570 ± 203 × 10^4, respectively. Further, the “Score (mean ± S.D.) of protein level in urine” value in assay [6] (1 mg/kg/day p.o.) was found to be 3.25 ± 0.16; in assay [6] (3 mg/kg/day p.o.) it was 2.44 ± 0.53. Further, the Number of eosinophils in assay [7] is on record as 11.8 ± 3.8 × 10^6.
`Cc1sc2c(c1C)C(c1ccc(Cl)cc1)=N[C@@H](CC(=O)Nc1ccc(O)cc1)c1nnc(C)n1-2` [Example 3, (S)-N-(4-hydroxyphenyl)-4-(4-chlorophenyl)-2,3,9-trimethyl-6H-thieno[3,2-f][1,2,4]triazolo[4,3-a][1,4]diazepine-6-acetamide]: the “Intestinal weight (mean ± S.D.)” value in assay [8] (0.01 mg/site intrarectally) was determined as 501.5 ± 78.3 mg; in assay [8] (0.1 mg/site intrarectally), 472.0 ± 43.4 mg; in assay [8] (1 mg/site intrarectally) it was 460.8 ± 52.3 mg. Also, the “MPO activity (mean ± S.D.)” value is listed as 0.716 ± 0.158 U/ml in assay [8] (0.01 mg/site intrarectally), 0.654 ± 0.109 U/ml in assay [8] (0.1 mg/site intrarectally) and 0.676 ± 0.172 U/ml in assay [8] (1 mg/site intrarectally).
In the case of `Cc1sc2c(c1C)C(c1ccc(Cl)cc1)=N[C@@H](CC(=O)Nc1ccc(N)cc1)c1nnc(C)n1-2` [Example 4, (S)-N-(4-aminophenyl)-4-(4-chlorophenyl)-2,3,9-trimethyl-6H-thieno[3,2-f][1,2,4]triazolo[4,3-a][1,4]diazepine-6-acetamide], the results for the “Intestinal weight (mean ± S.D.)” value in assay [8] (0.01 mg/site intrarectally), in [8] (0.1 mg/site intrarectally) and in assay [8] (1 mg/site intrarectally) were 490.8 ± 89.9 mg, 488.1 ± 24.0 mg and 511.8 ± 98.5 mg, respectively. The “MPO activity (mean ± S.D.)” value in [8] (0.01 mg/site intrarectally) is 0.703 ± 0,313 U/ml; in assay [8] (0.1 mg/site intrarectally) it was 0.511 ± 0.103 U/ml; in [8] (1 mg/site intrarectally), 0.488 ± 0.103 U/ml.
`Cc1sc2c(c1C)C(c1ccc(Cl)cc1)=N[C@@H](CC(=O)Nc1cccnc1)c1nnc(C)n1-2.Cl` [Example 5, (S)-N-(3-pyridyl)-4-(4-chlorophenyl)-2,3,9-trimethyl-6H-thieno[3,2-f][1,2,4]triazolo[4,3-a][1,4]diazepine-6-acetamide hydrochloride]: the figures for the concentration for half-maximal inhibition (IC50) in assay [1], in assay [2] (5 h) and in assay [3] (5 h) were 260 nM, 4.5 nM and 14 nM, respectively. Moreover, the “Increase in ear weight (mean ± S.D.)” value worked out at 15.2 ± 0.8 mg in assay [4] (1 mg/kg p.o.), 14.0 ± 0.6 mg in [4] (3 mg/kg p.o.) and 13.3 ± 0.5 mg in [4] (10 mg/kg p.o.). Also, the “Total number of leukocytes (mean ± S.D.)” value is 1221 ± 239 × 10^4 in assay [5] (0.03 mg/kg/day p.o.), 990 ± 327 × 10^4 in assay [5] (0.1 mg/kg/day p.o.) and 596 ± 165 × 10^4 in [5] (0.3 mg/kg/day p.o.). Moreover, the figures for the “Number of peripheral blood leukocytes (mean ± S.D.)” value in [9] (1 mg/kg/day p.o.), in assay [9] (3 mg/kg/day p.o.) and in [9] (10 mg/kg/day p.o.) were 46 ± 8 × 100/μl, 69 ± 18 × 100/μl and 103 ± 16 × 100/μl, respectively. The “Score (mean ± S.D.) of protein level in urine” value in [6] (1 mg/kg/day p.o.) is on record as 3.44 ± 0.88; in assay [6] (3 mg/kg/day p.o.), 2.22 ± 0.44.

As usually defined, the IC50 is the concentration needed to halve the response being measured.
